Measurements from ChEMBL document CHEMBL3351595, “Cyclic acyl guanidines bearing carbamate moieties allow potent and dirigible cholinesterase inhibition of either acetyl- or butyrylcholinesterase” (Bioorg Med Chem, 2014).
The source made the active and inactive calls. The rule behind the calls is not given here.

Tests used:
Cholinesterase = Cholinesterase (Equus caballus, UniProt P81908); test: Inhibition of equine serum BChE using ATC iodide substrate by DTNB based assay
[1] = Selectivity index, ratio of IC50 for electric eel AChE to IC50 for quine serum BChE
[2] = molecular target: Acetylcholinesterase (Electrophorus electricus) (UniProt O42275); test: Inhibition of electric eel AChE at 100 uM using ATC iodide substrate by DTNB based assay
Acetylcholinesterase = Acetylcholinesterase (Electrophorus electricus, UniProt O42275); test: Inhibition of electric eel AChE using ATC iodide substrate by DTNB based assay
[3] = molecular target: Acetylcholinesterase (Electrophorus electricus) (UniProt O42275); test: Inhibition of electric eel AChE at 50 uM using ATC iodide substrate by DTNB based assay
[4] = molecular target: Cholinesterase (Equus caballus) (UniProt P81908); test: Inhibition of equine serum BChE at 50 uM using ATC iodide substrate by DTNB based assay
[5] = molecular target: Cholinesterase (Equus caballus) (UniProt P81908); test: Time dependent inhibition of equine serum BChE at 25 to 250 nM; settings: TDE = time-dependent effect
HT-22 [6] = test: Neuroprotective activity in mouse HT22 cells assessed as reduction in glutamate-induced cytotoxicity at 1 to 25 uM by MTT assay; type: functional, cell-based
[7] = molecular target: Acetylcholinesterase (Electrophorus electricus) (UniProt O42275); test: Inhibition of electric eel AChE assessed as stability constant of inhibitor-enzyme complex pre-incubated for 2 to 20 mins by enzyme kinetic assay
HT-22 [8] = test: Toxicity against mouse HT22 cells assessed as reduction in cell viability at 1 to 25 uM by MTT assay; type: cell-based; settings: ht-22, 25 µM
[9] = molecular target: Acetylcholinesterase (Homo sapiens) (UniProt P22303); test: Inhibition of human erythrocyte AChE pre-incubated for 20 mins by enzyme kinetic assay
[10] = molecular target: Cholinesterase (Equus caballus) (UniProt P81908); test: Inhibition of equine serum BChE assessed as rate constant of carbamoyl-enzyme formation pre-incubated for 80 mins by enzyme kinetic assay
[11] = molecular target: Acetylcholinesterase (Electrophorus electricus) (UniProt O42275); test: Inhibition of electric eel AChE assessed as rate constant of carbamoyl-enzyme formation pre-incubated for 2 to 20 mins by enzyme kinetic assay
[12] = molecular target: Acetylcholinesterase (Homo sapiens) (UniProt P22303); test: Inhibition of human erythrocyte AChE pre-incubated for 2 mins by enzyme kinetic assay
HT-22 [13] = test: Neuroprotective activity in mouse HT22 cells assessed as reduction in glutamate-induced cytotoxicity at 25 uM by MTT assay; type: functional, cell-based
HT-22 [14] = test: Neuroprotective activity in mouse HT22 cells assessed as reduction in glutamate-induced cytotoxicity at 10 to 25 uM by MTT assay; type: functional, cell-based
[15] = Antioxidant activity assessed as AAPH-induced peroxyl radicals scavenging activity by measuring Trolox equivalents by oxygen radical absorbance capacity-fluorescein assay; type: physicochemical
HT-22 [16] = test: Toxicity against mouse HT22 cells assessed as reduction in cell viability at 25 uM by MTT assay; type: cell-based; settings: ht-22, 25 µM
HT-22 [17] = test: Neuroprotective activity in mouse HT22 cells assessed as reduction in glutamate-induced cytotoxicity at 5 to 25 uM by MTT assay; type: functional, cell-based
[18] = molecular target: Cholinesterase (Equus caballus) (UniProt P81908); test: Inhibition of equine serum BChE at 100 uM using ATC iodide substrate by DTNB based assay
[19] = molecular target: Cholinesterase (Equus caballus) (UniProt P81908); test: Time dependent inhibition of equine serum BChE at 5 to 100 nM; settings: TDE = time-dependent effect
[20] = molecular target: Cholinesterase (Equus caballus) (UniProt P81908); test: Inhibition of equine serum BChE assessed as stability constant of inhibitor-enzyme complex pre-incubated for 2 to 20 mins by enzyme kinetic assay
[21] = molecular target: Cholinesterase (Equus caballus) (UniProt P81908); test: Inhibition of equine serum BChE assessed as rate constant of carbamoyl-enzyme formation pre-incubated for 2 to 20 mins by enzyme kinetic assay
HT-22 [22] = test: Toxicity against mouse HT22 cells assessed as reduction in cell viability at 5 uM by MTT assay; type: cell-based; settings: ht-22, 5 µM

Sequence of Acetylcholinesterase (O42275 whole entry): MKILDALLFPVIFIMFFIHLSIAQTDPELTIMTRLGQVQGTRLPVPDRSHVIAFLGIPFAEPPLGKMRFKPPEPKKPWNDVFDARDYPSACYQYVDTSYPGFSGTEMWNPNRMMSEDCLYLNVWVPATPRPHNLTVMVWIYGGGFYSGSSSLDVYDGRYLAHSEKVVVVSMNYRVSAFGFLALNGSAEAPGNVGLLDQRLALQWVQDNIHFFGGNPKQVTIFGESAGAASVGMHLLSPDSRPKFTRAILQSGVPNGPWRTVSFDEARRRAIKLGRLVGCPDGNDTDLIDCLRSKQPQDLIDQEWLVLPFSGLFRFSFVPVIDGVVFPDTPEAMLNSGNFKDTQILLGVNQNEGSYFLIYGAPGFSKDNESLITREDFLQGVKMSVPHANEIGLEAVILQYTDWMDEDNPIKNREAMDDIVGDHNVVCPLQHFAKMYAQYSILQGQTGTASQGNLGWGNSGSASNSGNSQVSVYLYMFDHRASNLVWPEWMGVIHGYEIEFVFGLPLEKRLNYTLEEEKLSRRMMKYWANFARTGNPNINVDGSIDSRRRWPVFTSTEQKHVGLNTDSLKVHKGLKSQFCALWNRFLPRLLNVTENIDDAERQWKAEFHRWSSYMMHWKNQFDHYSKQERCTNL
Sequence of Acetylcholinesterase (Electrophorus electricus) (O42275 24-633 limits assumed): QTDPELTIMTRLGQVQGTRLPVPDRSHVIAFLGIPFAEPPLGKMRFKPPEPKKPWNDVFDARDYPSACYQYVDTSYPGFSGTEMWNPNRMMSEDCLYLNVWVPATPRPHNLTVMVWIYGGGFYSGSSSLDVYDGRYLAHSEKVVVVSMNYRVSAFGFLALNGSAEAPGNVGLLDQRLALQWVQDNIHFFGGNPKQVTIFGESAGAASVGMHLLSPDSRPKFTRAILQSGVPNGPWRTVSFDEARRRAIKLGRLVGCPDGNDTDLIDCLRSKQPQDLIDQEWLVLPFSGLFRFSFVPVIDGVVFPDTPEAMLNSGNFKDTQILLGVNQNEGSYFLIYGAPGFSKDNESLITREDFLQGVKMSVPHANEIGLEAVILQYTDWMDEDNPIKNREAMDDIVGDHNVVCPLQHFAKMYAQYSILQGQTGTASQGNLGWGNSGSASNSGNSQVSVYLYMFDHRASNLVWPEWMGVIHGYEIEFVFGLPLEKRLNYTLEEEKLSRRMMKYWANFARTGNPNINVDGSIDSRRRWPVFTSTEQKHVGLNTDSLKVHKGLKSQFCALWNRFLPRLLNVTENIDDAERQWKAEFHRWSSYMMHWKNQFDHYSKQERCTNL
Sequence of Cholinesterase (Equus caballus) (P81908 whole entry): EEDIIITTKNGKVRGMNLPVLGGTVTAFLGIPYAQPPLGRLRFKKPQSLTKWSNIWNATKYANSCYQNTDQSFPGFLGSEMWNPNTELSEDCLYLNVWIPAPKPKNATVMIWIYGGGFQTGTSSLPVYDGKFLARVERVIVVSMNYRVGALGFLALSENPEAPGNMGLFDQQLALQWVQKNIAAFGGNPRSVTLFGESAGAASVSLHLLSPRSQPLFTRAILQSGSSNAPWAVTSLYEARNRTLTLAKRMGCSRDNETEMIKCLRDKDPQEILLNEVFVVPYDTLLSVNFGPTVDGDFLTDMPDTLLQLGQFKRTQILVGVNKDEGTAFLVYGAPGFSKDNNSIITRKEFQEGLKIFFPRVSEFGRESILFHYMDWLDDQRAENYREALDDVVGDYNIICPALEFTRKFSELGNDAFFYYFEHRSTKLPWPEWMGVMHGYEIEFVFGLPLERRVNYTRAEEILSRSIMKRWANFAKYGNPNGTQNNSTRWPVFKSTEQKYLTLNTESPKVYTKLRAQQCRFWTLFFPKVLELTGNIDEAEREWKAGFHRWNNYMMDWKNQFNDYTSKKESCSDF
Sequence of Cholinesterase (P81908 whole entry): as above
Sequence of Acetylcholinesterase (Homo sapiens) (P22303 whole entry): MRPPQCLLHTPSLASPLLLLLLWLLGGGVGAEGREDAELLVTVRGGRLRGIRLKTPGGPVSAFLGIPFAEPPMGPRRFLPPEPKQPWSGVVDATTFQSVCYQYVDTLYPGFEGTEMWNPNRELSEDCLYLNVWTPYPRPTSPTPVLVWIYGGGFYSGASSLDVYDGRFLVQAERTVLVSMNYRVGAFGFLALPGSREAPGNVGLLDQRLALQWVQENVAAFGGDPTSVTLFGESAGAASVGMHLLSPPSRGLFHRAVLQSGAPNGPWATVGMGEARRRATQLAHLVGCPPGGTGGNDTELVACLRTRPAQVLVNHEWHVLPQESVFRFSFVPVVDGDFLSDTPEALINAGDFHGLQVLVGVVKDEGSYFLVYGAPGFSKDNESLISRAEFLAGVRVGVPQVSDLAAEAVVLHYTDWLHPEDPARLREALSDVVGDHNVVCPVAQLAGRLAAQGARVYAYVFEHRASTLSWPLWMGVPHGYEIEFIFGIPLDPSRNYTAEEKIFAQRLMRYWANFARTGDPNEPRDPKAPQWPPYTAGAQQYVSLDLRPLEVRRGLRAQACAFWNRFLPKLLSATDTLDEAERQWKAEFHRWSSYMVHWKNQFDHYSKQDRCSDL

| SMILES | IC50 (Cholinesterase; read-out: IC50) [µM] | Ratio IC50 [1] | IC50 (Acetylcholinesterase; read-out: IC50) [µM] | further results |
| --- | --- | --- | --- | --- |
| CC(C)c1ccc(NC(=O)Oc2ccc3nc4n(c(=O)c3c2)CCCN4C)cc1 | 17.7 | > 5.6 |  | inhibition [2]: 50% |
| CCCCNC(=O)Oc1ccc2c(c1)CN1CCCN(C)C1=N2 | 1.34 | 2.31 | 3.13 | IC50 (Cholinesterase; read-out: pIC50 (converted)): 3.89 µM |
| CC(C)c1ccc(NC(=O)Oc2ccc3nc4n(c(=O)c3c2)CCCN4Cc2ccccc2)cc1 |  |  |  | inhibition [3]: 30%; inhibition [4]: 6% |
| CC(C)c1ccc(NC(=O)Oc2ccc3nc4n(c(=O)c3c2)CCCN4)cc1 |  | 0.5 |  | inhibition [3]: 34%; inhibition [4]: 19% |
| CCCCNC(=O)Oc1ccc2nc3n(c(=O)c2c1)CCCN3Cc1ccccc1 |  |  |  | inhibition [3]: 41%; inhibition [4]: 8% |
| CC(C)c1ccc(NC(=O)Oc2ccc3c(c2)C(=O)N2CCCN=C2N3C)cc1 | 3.26 | 0.03 | 0.0837 | inhibition [5]: tde; Activity (HT-22 [6]): inactive; K [7]: 43.5 nM; Activity (HT-22 [8]): Non-toxic; inhibition [9]: inactive; inhibition [10]: inactive; K [11]: 0.09 min⁻¹; inhibition [12]: Active |
| CN1C2=NCCCN2C(=O)c2cc(OC(=O)Nc3ccc(C(C)(C)C)cc3)ccc21 |  | < 0.004 | 0.2 |  |
| CN1CCCN2Cc3cc(O)ccc3N=C12 |  | < 0.3 | 15.9 | Activity (HT-22 [6]): inactive; Activity (HT-22 [13]): Active; Activity (HT-22 [8]): Non-toxic; Activity (HT-22 [14]): inactive; Activity [15]: 1.34 equiv; inhibition [4]: 53% |
| CCCCCCCNC(=O)Oc1ccc2nc3n(c(=O)c2c1)CCCN3C | 1.75 | 3.41 | 5.98 |  |
| O=c1c2cc(O)ccc2nc2n1CCCN2Cc1ccccc1 |  |  |  | Activity (HT-22 [16]): Toxic; inhibition [3]: 41%; Activity (HT-22 [17]): Active; Activity (HT-22 [8]): Non-toxic; Activity [15]: 1.56 equiv; inhibition [4]: 40% |
| COc1cccc(NC(=O)Oc2ccc3c(c2)C(=O)N2CCCN=C2N3C)c1 | 52.2 | 0.06 | 2.9 |  |
| COc1cccc(NC(=O)Oc2ccc3nc4n(c(=O)c3c2)CCCN4Cc2ccccc2)c1 |  |  |  | inhibition [3]: 35%; inhibition [4]: 11% |
| COc1cccc(NC(=O)Oc2ccc3nc4n(c(=O)c3c2)CCCN4C)c1 | 12.6 | 0.33 | 5.46 |  |
| O=c1c2cc(O)ccc2nc2n1CCCN2 |  | 0.28 | 55.6 | Activity (HT-22 [16]): Toxic; IC50 (Acetylcholinesterase; read-out: pIC50 (converted)): 55 µM; inhibition [18]: 24%; Activity (HT-22 [6]): inactive |
| CCCCCCCNC(=O)Oc1ccc2nc3n(c(=O)c2c1)CCCN3CCCN1CCCCC1 | 0.0247 | 322 | 7.95 | inhibition [19]: tde; K [20]: 1.3 nM; Activity (HT-22 [6]): inactive; Activity (HT-22 [8]): Non-toxic; K [21]: 0.125 min⁻¹; inhibition [10]: inactive |
| COc1cccc(NC(=O)Oc2ccc3nc4n(c(=O)c3c2)CCCN4CCCN2CCCCC2)c1 | 0.45 | 16.2 | 7.3 | IC50 (Cholinesterase; read-out: pIC50 (converted)): 25.7 µM |
| CCCCCCCNC(=O)Oc1ccc2nc3n(c(=O)c2c1)CCCN3Cc1ccccc1 | 25.3 | 3.51 | 88.8 |  |

| SMILES | IC50 (Cholinesterase; read-out: IC50) [µM] | Ratio IC50 [1] | IC50 (Acetylcholinesterase; read-out: IC50) [µM] | further results |
| --- | --- | --- | --- | --- |
| CN1CCCn2c1nc1ccc(OCc3ccccc3)cc1c2=O | 81.7 | 0.21 | 15.6 |  |
| CNC(=O)Oc1ccc2c(c1)[C@]1(C)CCN(C)[C@@H]1N2C |  |  |  | K [20]: 41.1 nM; K [7]: 34.3 nM; K [21]: 0.067 min⁻¹; K [11]: 0.123 min⁻¹ |
| CC(C)c1ccc(NC(=O)Oc2ccc3nc4n(c(=O)c3c2)CCCN4CCCN2CCCCC2)cc1 | 0.25 | 3.1 | 0.78 |  |
| O=C1c2ccccc2NC2=NCCCN12 |  | 0.3 | 29.6 | inhibition [18]: 47%; Activity (HT-22 [6]): inactive; Activity (HT-22 [22]): Toxic |
| CCCCNC(=O)Oc1ccc2nc3n(c(=O)c2c1)CCCN3CCCN1CCCCC1 | 1.1 | 6.35 | 6.91 |  |
| O=c1c2cc(OCc3ccccc3)ccc2nc2n1CCCN2Cc1ccccc1 |  |  |  | inhibition [18]: 10%; inhibition [2]: 20% |
| CCCCNC(=O)Oc1ccc2c(c1)C(=O)N1CCCN=C1N2C | 43.9 | 0.09 | 3.84 |  |
| O=c1c2cc(OCc3ccccc3)ccc2nc2n1CCCN2 |  | 0.19 | 19.3 | IC50 (Acetylcholinesterase; read-out: pIC50 (converted)): 19.1 µM; inhibition [4]: 20% |
| CCCCNC(=O)Oc1ccc2nc3n(c(=O)c2c1)CCCN3C | 44.3 | 0.37 | 16.3 |  |
| CN1C2=NCCCN2C(=O)c2cc(O)ccc21 | 55.5 | 0.21 | 11.8 | Activity (HT-22 [6]): inactive; Activity (HT-22 [8]): Non-toxic; Activity (HT-22 [14]): inactive |
| CN1C2=NCCCN2C(=O)c2cc(OCc3ccccc3)ccc21 | 21.4 | 0.03 | 0.7 |  |
| CN1CCCN2Cc3cc(OCc4ccccc4)ccc3N=C12 | 4.17 | 0.2 | 0.826 |  |
| CN1CCCn2c1nc1ccc(O)cc1c2=O |  |  |  | inhibition [3]: 61%; Activity (HT-22 [8]): Non-toxic; Activity (HT-22 [14]): Active; Activity [15]: 1.54 equiv; inhibition [4]: 9% |
| O=c1c2cc(OCc3ccccc3)ccc2nc2n1CCCN2CCCN1CCCCC1 | 0.81 | 1.6 | 1.31 | IC50 (Acetylcholinesterase; read-out: pIC50 (converted)): 1.35 µM |
| O=c1c2cc(O)ccc2nc2n1CCCN2CCCN1CCCCC1 | 22.7 | 1 | 22.9 | Activity (HT-22 [14]): inactive |
| CCCCCCCNC(=O)Oc1ccc2c(c1)C(=O)N1CCCN=C1N2C | 0.14 | 26.1 | 3.64 |  |
| CCCCCCCNC(=O)Oc1ccc2c(c1)CN1CCCN(C)C1=N2 | 0.63 | 5.31 | 3.36 |  |
